Source: US9718828B2 (MERCK SHARP & DOHME CORP., priority 2011, dated 2017)
Where two headings read alike, the source gives them in different places.

Target: Btk enzyme (His-Btk) (Homo sapiens (Human), UniProt Q06187)
Experiment: Btk enzyme activity, IMAP fluorescence polarization assay (Assay Method A)
[1] = read-out: EC50 Btk activity values - Assay Method A, IMAP-FP, 60 min pre-incubation, 5 μM ATP, class 100-1000 is given as ≧100 nM-<1 μM

Sequence of Btk enzyme (His-Btk) (Q06187 whole entry): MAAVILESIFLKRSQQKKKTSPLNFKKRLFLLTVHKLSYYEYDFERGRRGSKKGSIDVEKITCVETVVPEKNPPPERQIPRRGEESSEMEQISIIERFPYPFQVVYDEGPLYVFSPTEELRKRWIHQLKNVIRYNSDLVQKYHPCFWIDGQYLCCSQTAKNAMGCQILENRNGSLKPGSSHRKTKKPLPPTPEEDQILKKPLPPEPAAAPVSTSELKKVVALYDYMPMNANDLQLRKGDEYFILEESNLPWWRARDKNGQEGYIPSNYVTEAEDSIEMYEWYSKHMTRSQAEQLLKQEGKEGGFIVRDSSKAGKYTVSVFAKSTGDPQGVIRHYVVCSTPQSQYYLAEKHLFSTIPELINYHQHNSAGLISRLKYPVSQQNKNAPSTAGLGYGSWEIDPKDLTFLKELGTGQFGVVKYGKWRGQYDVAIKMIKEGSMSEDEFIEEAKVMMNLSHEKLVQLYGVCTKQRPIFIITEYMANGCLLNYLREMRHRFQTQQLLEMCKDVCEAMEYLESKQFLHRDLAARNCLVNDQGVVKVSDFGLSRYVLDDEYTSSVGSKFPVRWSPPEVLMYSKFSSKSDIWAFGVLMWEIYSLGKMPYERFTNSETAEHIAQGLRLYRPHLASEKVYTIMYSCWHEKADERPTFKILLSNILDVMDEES

EC50 [nM]	EC50 [1] [nM]	SMILES
–	< 10	CCNC(=O)N[C@H]1CCC[C@@H](c2nc(-c3ccc(C(=O)Nc4cc(C(F)(F)F)ccn4)cc3)c3c(N)nccn23)C1 (relative stereo) [Example 155, 4-(8-amino-3-((cis)-3-(3-ethylureido)cyclohexyl)imidazo [1,5-a]pyrazin-1-yl)-N-(4-(trifluoromethyl)pyridin-2-yl)benzamide]
–	< 10	CC(C)C(=O)N[C@H]1CCC[C@@H](c2nc(-c3ccc(C(=O)Nc4cc(C(F)(F)F)ccn4)cc3)c3c(N)nccn23)C1 (relative stereo) [Example 159, 4-(8-amino-3-((cis)-3-isobutyramidocyclohexyl)imidazo [1,5-a]pyrazin-1-yl)-N-(4-(trifluoromethyl)pyridin-2-yl)benzamide]
–	< 10	CCC(=O)N[C@H]1CCC[C@@H](c2nc(-c3ccc(C(=O)Nc4cc(C(F)(F)F)ccn4)cc3)c3c(N)nccn23)C1 (relative stereo) [Example 161, 4-(8-amino-3-((cis)-3-propionamidocyclohexyl)imidazo[1,5-a]pyrazin-1-yl)-N-(4-(trifluoromethyl)pyridin-2-yl)benzamide]
< 10	–	CC(C)(C#N)C(=O)N[C@@H]1CCC[C@@H](c2nc(-c3ccc(C(=O)Nc4cc(C(F)(F)F)ccn4)cc3)c3c(N)nccn23)C1 (relative stereo) [Example 162, 4-(8-amino-3-((trans)-3-(2-cyano-2-methylpropanamido)-cyclohexyl)imidazo[1,5-a]pyrazin-1-yl)-N-(4-(trifluoromethyl)pyridin-2-yl)benzamide]
–	< 10	CC(C)(F)C(=O)N[C@@H]1CCC[C@@H](c2nc(-c3ccc(C(=O)Nc4cc(C(F)(F)F)ccn4)cc3)c3c(N)nccn23)C1 (relative stereo) [Example 163, 4-(8-amino-3-((trans)-3-(2-fluoro-2-methylpropanamido)cyclohexyl)imidazo[1,5-a]pyrazin-1-yl)-N-(4-(trifluoromethyl)pyridin-2-yl)benzamide]

The remaining lines, values behind:

SMILES	EC50 [nM]	EC50 [1] [nM]
Nc1nccn2c([C@@H]3CCC[C@H](NC(=O)OCc4ccccc4)C3)nc(-c3ccc(C(=O)Nc4cc(C(F)(F)F)ccn4)cc3)c12 (relative stereo) [Example 154, benzyl (cis)-3-(8-amino-1-(4-(4-(trifluoromethyl)pyridin-2-ylcarbamoyl)phenyl)imidazo [1,5-a]pyrazin-3-yl)cyclohexylcarbamate]	10 to 100	–
Nc1nccn2c([C@@H]3CCC[C@H](NC(=O)C4CC4)C3)nc(-c3ccc(C(=O)Nc4cc(C(F)(F)F)ccn4)cc3)c12 (relative stereo) [Example 156, 4-(8-amino-3-((cis)-3-(cyclopropanecarboxamido)cyclohexyl)imidazo[1,5-a]pyrazin-1-yl)-N-(4-(trifluoromethyl)pyridin-2-yl)benzamide]	–	< 10
Nc1nccn2c([C@@H]3CCC[C@H](N)C3)nc(-c3ccc(C(=O)Nc4cc(C(F)(F)F)ccn4)cc3)c12 (relative stereo) [Example 157, 4-(8-amino-3-((cis)-3-aminocyclohexyl)imidazo[1,5-a]pyrazin-1-yl)-N-(4-(trifluoromethyl)pyridin-2-yl)benzamide]	10 to 100	–
COCCC(=O)N[C@H]1CCC[C@@H](c2nc(-c3ccc(C(=O)Nc4cc(C(F)(F)F)ccn4)cc3)c3c(N)nccn23)C1 (relative stereo) [Example 158, 4-(8-amino-3-((cis)-3-(3-methoxypropanamido)cyclohexyl)imidazo [1,5-a]pyrazin-1-yl)-N-(4-(trifluoromethyl)pyridin-2-yl)benzamide]	–	< 10
Nc1nccn2c([C@@H]3CCC[C@@H](NC(=O)C4CC4)C3)nc(-c3ccc(C(=O)Nc4cc(C(F)(F)F)ccn4)cc3)c12 (relative stereo) [Example 164, 4-(8-amino-3-((trans)-3-(cyclopropanecarboxamido)cyclohexyl)imidazo[1,5-a]pyrazin-1-yl)-N-(4-(trifluoromethyl)pyridin-2-yl)benzamide]	–	< 10
